According to ChEMBL document CHEMBL1153800, “Carbonic anhydrase inhibitors; fluorinated phenyl sulfamates show strong inhibitory activity and selectivity for the inhibition of the tumor-associated isozymes IX and XII over the cytosolic ones I and II” (Bioorg Med Chem Lett, 2009):

Columns and labels:
[1] = target: Carbonic anhydrase 1 (Homo sapiens) (UniProt P00915)
Description: Inhibition of human CA1 by stopped flow CO2 hydration assay

[2] = target: Carbonic anhydrase 9 (Homo sapiens) (UniProt Q16790)
Description: Inhibition of tumor associated human recombinant CA9 catalytic domain by stopped flow CO2 hydration assay

[3] = target: Carbonic anhydrase 12 (Homo sapiens) (UniProt O43570)
Chain of Carbonic anhydrase 12 (Homo sapiens) (O43570 whole entry, the tested form may be a part): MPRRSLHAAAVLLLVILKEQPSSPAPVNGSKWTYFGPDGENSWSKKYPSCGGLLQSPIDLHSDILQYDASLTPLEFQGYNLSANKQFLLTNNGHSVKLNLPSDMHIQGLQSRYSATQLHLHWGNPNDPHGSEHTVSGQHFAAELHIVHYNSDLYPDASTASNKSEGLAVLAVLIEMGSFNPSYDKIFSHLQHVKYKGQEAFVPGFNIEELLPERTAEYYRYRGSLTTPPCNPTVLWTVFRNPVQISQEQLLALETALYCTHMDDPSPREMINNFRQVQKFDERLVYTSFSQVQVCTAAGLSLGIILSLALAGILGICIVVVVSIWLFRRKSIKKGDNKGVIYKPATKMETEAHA
Description: Inhibition of tumor associated human recombinant CA12 catalytic domain by stopped flow CO2 hydration assay

[4] = species: Homo sapiens; assay: Selectivity ratio of Ki for human recombinant CA9 catalytic domain to Ki for human CA2
[5] = target: Carbonic anhydrase 2 (Homo sapiens) (UniProt P00918)
Description: Inhibition of human CA2 by stopped flow CO2 hydration assay

Chain of Carbonic anhydrase 1 (Homo sapiens) (P00915 2-261 limits assumed): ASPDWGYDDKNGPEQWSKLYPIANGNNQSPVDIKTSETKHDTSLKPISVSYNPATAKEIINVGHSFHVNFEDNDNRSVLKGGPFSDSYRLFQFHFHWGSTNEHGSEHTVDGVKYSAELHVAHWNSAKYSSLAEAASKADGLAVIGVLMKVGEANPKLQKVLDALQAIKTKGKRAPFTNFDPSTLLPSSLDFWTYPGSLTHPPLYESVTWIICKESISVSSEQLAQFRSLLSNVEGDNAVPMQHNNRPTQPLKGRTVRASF

Ki [1] [nM] | Ki [2] [nM] | Ki [3] | Ratio [4] | Ki [5] [nM] | SMILES
2.1 | 63 | 56 | – | – | NS(=O)(=O)Oc1ccccc1
75 | 6.5 | 3.9 | 11.4 | 74 | NS(=O)(=O)Oc1ccc(F)cc1
